The source of these data is patent US20180201592A1, “2-AMINO-1,3,4-THIADIAZINE AND 2-AMINO-1,3,4-OXADIAZINE BASED ANTIFUNGAL AGENTS” (F2G Limited, priority 2015, published 2018).

Settings in all cases: banded MIC grade
The subject of one assay is Aspergillus fumigatus. The assay can be described thus: Minimum inhibitory concentration, YAG medium. Format: cell-based. The gist of the method: (§1)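 MIC, in mg/L, defined as the lowest drug level inhibiting growth by >70% relative to drug-free wells, judged by OD 485 nm after 24 hrs at 35° C. Spores (1-2×10^4 cfu/mL) were grown in YAG medium against doubling dilutions, usually 50-0.05 mg/L, repeated at 0.5-0.0005 mg/L where needed.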

For assay [1], the system named is A. fumigatus 210. Nature of the assay: Minimum inhibitory concentration, YAG medium. In kind it is cell-based, Aspergillus fumigatus. The gist of the method:
as §1

In assay [2] the test system is A. terreus 49. Nature of the assay: Minimum inhibitory concentration, YAG medium. In kind it is cell-based, Aspergillus terreus. The gist of the method:
(§2)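 Compound in DMSO (5 mg/mL stock), diluted in water and doubling-diluted; Aspergillus spores grown in YAG medium 24 hrs at 35° C. Growth read as optical density at 485 nm; MIC given in mg/L.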

The next assay relates to Aspergillus flavus. The assay can be described thus: Minimum inhibitory concentration, YAG medium. Format: cell-based. The procedure, abridged:
as §2

The subject of another assay is Aspergillus niger. The assay can be described thus: Minimum inhibitory concentration, YAG medium. In kind it is cell-based. The gist of the method:
as §2

The next assay deals with Aspergillus terreus. The assay can be described thus: Minimum inhibitory concentration, YAG medium. In kind it is cell-based. The gist of the method:
as §2

A further assay has as its system A. flavus. The assay can be described thus: Minimum inhibitory concentration, RPMI medium. Format: cell-based. The procedure, abridged:
(§3)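 Broth microdilution in RPMI 1640 medium using doubling dilutions in water prepared from a 5 mg/mL DMSO stock. Plates incubated 24-48 hrs at 35° C; growth read as optical density at 485 nm.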

Another assay deals with A. niger. The assay can be described thus: Minimum inhibitory concentration, RPMI medium. Format: cell-based. The procedure, abridged: as §3
For assay [3], the system named is A. terreus 49. Nature of the assay: Minimum inhibitory concentration, RPMI medium. Format: cell-based. The gist of the method: as §3
Another assay deals with A. terreus. The assay can be described thus: Minimum inhibitory concentration, RPMI medium. Format: cell-based. The procedure, abridged: as §3
The subject of a further assay is C. albicans. The assay can be described thus: Minimum inhibitory concentration, RPMI medium. Format: cell-based. The procedure, abridged:
as §3

The next assay deals with C. glabrata. Nature of the assay: Minimum inhibitory concentration, RPMI medium. Format: cell-based. The procedure, abridged: as §3
The test system of another assay is C. krusei. The assay can be described thus: Minimum inhibitory concentration, RPMI medium. In kind it is cell-based. The gist of the method:
as §3

Another assay has as its system C. parapsilosis. The assay can be described thus: Minimum inhibitory concentration, RPMI medium. In kind it is cell-based. The procedure, abridged:
as §3

The next assay deals with C. tropicalis. Nature of the assay: Minimum inhibitory concentration, RPMI medium. Format: cell-based. The gist of the method:
as §3

Assay [4] deals with A. fumigatus 210. Nature of the assay: Minimum inhibitory concentration, RPMI medium. Format: cell-based. The method, then:
(§4) Between 1 and 5 mgs of compound were accurately weighed out into a sterile Eppendorf tube. The compound was dissolved in DMSO to give a solution containing 5 mg/mL. Tubes were stored at −20° C. until required.
(§5) On the day of testing thawed solutions were vortex mixed to ensure homogeneity. 30 μL of solution was removed and added to 570 μL of sterile water in a separate sterile Eppendorf. The thoroughly mixed solution was used to prepare a series of doubling dilutions in water, in a deep well plate. Thirteen replicate plates were prepared using a Minitrak by aspirating 20 μL from each well into eleven clear polystyrene 96 well plates.
(§6) Assays were also performed in RPMI medium (Roswell Park Memorial Media 1640). To perform MIC tests in this medium, dilutions of compounds are prepared in microtitre plates as described above. Fungal strains to be tested are grown and harvested in an identical manner to that described above, and each organism suspension was diluted in RPMI medium, typically containing 2% glucose and 0.135 M MOPS buffer (pH 7.0) to 0.5-2×10^4cfu/mL, rather than in YAG medium. 80 μL of an organism suspension was added to each well of the plate containing drug dilutions.
(§7) This produced MIC plates with a drug range 50-0.05 mg/L and organism inocula of 1-2×10^4 cfu/mL. All plates were incubated for 24-48 hrs at 35° C. Growth was assessed by monitoring the optical density at 485 nm for each well. The MIC of a compound is the lowest drug concentration that inhibits growth of an organism by >80% compared with a drug free control. The following organisms were tested: C. albicans, C. parapsilosis, C. tropicalis, C. glabrata, C. krusei, A. niger, A. fumigatus, A. terreus, A. flavus, A. terreus 49, and A. fumigatus 210.

A further assay concerns A. fumigatus. The assay can be described thus: Minimum inhibitory concentration, RPMI medium. Format: cell-based. How it is done:
as §4, §5, §6, §7

Molecules are shown by their SMILES.

On to `CC(=O)OCCCCC1=NN=C(N)SC1`, for which the “MIC grade, A. FUMIGATUS, YAG media” value against Aspergillus fumigatus is given as 4 (4: <0.2 mg/L). Besides, the “MIC grade, A. FUMIGATUS 210, YAG media” value in the assay with A. fumigatus 210 [1] is listed as 4 (4: <0.2 mg/L). Further, the “MIC grade, A. TERREUS 49, YAG media” value against A. terreus 49 [2] was 4 (4: <0.2 mg/L). Also, the “MIC grade, A. FLAVUS, YAG media” value with Aspergillus flavus is 4 (4: <0.2 mg/L). The “MIC grade, A. NIGER, YAG media” value in the assay on Aspergillus niger is reported as 3 (3: 0.2-1 mg/L). Besides, the “MIC grade, A. TERREUS, YAG media” value in the assay with Aspergillus terreus was 4 (4: <0.2 mg/L). In the assay on A. flavus, the “MIC grade, A. FLAVUS, RPMI media” value was 3 (3: 1-5 mg/L). The “MIC grade, A. NIGER, RPMI media” value against A. niger is 2 (2: 5-20 mg/L). For the same molecule, the “MIC grade, A. TERREUS 49, RPMI media” value in the assay on A. terreus 49 [3] is 3 (3: 1-5 mg/L). In addition, the “MIC grade, A. TERREUS, RPMI media” value against A. terreus is listed as 3 (3: 1-5 mg/L). Also, the “MIC grade, C. ALBICANS, RPMI media” value against C. albicans was 3 (3: 1-5 mg/L). Further, in the assay on C. glabrata, the “MIC grade, C. GLABRATA, RPMI media” value was 2 (2: 5-20 mg/L). The “MIC grade, C. KRUSEI, RPMI media” value with C. krusei was 4 (4: <1 mg/L). Besides, the “MIC grade, C. PARAPSILOSIS, RPMI media” value in the assay on C. parapsilosis is reported as 4 (4: <1 mg/L). In addition, in the assay with C. tropicalis, the “MIC grade, C. TROPICALIS, RPMI media” value is recorded as 3 (3: 1-5 mg/L). Further, the “MIC grade, A. FUMIGATUS 210, RPMI media” value in the assay on A. fumigatus 210 [4] is listed as 3 (3: 1-5 mg/L). Further, the “MIC grade, A. FUMIGATUS, RPMI media” value in the assay with A. fumigatus is given as 3 (3: 1-5 mg/L).

As for `NC1=NN=C(CCCCOCCc2ccccc2)CS1`, the “MIC grade, A. FUMIGATUS, YAG media” value against Aspergillus fumigatus is given as 3 (3: 0.2-1 mg/L). The “MIC grade, A. FUMIGATUS 210, YAG media” value in the assay on A. fumigatus 210 [1] is given as 3 (3: 0.2-1 mg/L). Further, the “MIC grade, A. TERREUS 49, YAG media” value against A. terreus 49 [2] was 3 (3: 0.2-1 mg/L). Besides, the “MIC grade, A. FLAVUS, YAG media” value against Aspergillus flavus is given as 4 (4: <0.2 mg/L). In addition, the “MIC grade, A. NIGER, YAG media” value in the assay on Aspergillus niger is 3 (3: 0.2-1 mg/L). The “MIC grade, A. TERREUS, YAG media” value in the assay on Aspergillus terreus is given as 3 (3: 0.2-1 mg/L). The “MIC grade, A. FLAVUS, RPMI media” value against A. flavus is listed as 3 (3: 1-5 mg/L). Besides, the “MIC grade, A. NIGER, RPMI media” value with A. niger is 2 (2: 5-20 mg/L). The “MIC grade, A. TERREUS 49, RPMI media” value against A. terreus 49 [3] was 2 (2: 5-20 mg/L). Further, the “MIC grade, A. TERREUS, RPMI media” value against A. terreus is 2 (2: 5-20 mg/L). Besides, in the assay on C. albicans, the “MIC grade, C. ALBICANS, RPMI media” value is given as 3 (3: 1-5 mg/L). The “MIC grade, C. GLABRATA, RPMI media” value against C. glabrata was 2 (2: 5-20 mg/L). Besides, the “MIC grade, C. KRUSEI, RPMI media” value against C. krusei was 3 (3: 1-5 mg/L). In addition, in the assay with C. parapsilosis, the “MIC grade, C. PARAPSILOSIS, RPMI media” value is recorded as 3 (3: 1-5 mg/L). For the same molecule, in the assay with C. tropicalis, the “MIC grade, C. TROPICALIS, RPMI media” value is recorded as 3 (3: 1-5 mg/L). In addition, the “MIC grade, A. FUMIGATUS 210, RPMI media” value in the assay on A. fumigatus 210 [4] is reported as 1 (1: ≥20 mg/L). Moreover, in the assay with A. fumigatus, the “MIC grade, A. FUMIGATUS, RPMI media” value is listed as 2 (2: 5-20 mg/L).

As for `CCCCc1cccc(COCCCCC2=NN=C(N)SC2)c1`, the “MIC grade, A. FUMIGATUS, YAG media” value with Aspergillus fumigatus is reported as 1 (1: ≥5 mg/L). For the same molecule, the “MIC grade, A. FUMIGATUS 210, YAG media” value in the assay with A. fumigatus 210 [1] was 1 (1: ≥5 mg/L). In the assay with A. terreus 49 [2], the “MIC grade, A. TERREUS 49, YAG media” value was 2 (2: 1-5 mg/L). Also, the “MIC grade, A. FLAVUS, YAG media” value against Aspergillus flavus is given as 3 (3: 0.2-1 mg/L). For the same molecule, the “MIC grade, A. NIGER, YAG media” value with Aspergillus niger is recorded as 3 (3: 0.2-1 mg/L). For the same molecule, the “MIC grade, A. TERREUS, YAG media” value in the assay on Aspergillus terreus is listed as 2 (2: 1-5 mg/L). In addition, the “MIC grade, A. FLAVUS, RPMI media” value in the assay with A. flavus is recorded as 2 (2: 5-20 mg/L). Besides, in the assay on A. niger, the “MIC grade, A. NIGER, RPMI media” value is given as 2 (2: 5-20 mg/L). Moreover, the “MIC grade, A. TERREUS 49, RPMI media” value against A. terreus 49 [3] is 2 (2: 5-20 mg/L). Besides, the “MIC grade, A. TERREUS, RPMI media” value in the assay with A. terreus is given as 2 (2: 5-20 mg/L). Besides, in the assay on C. albicans, the “MIC grade, C. ALBICANS, RPMI media” value is given as 2 (2: 5-20 mg/L). Moreover, the “MIC grade, C. GLABRATA, RPMI media” value in the assay on C. glabrata was 1 (1: ≥20 mg/L). The “MIC grade, C. KRUSEI, RPMI media” value against C. krusei is on record as 2 (2: 5-20 mg/L). Also, the “MIC grade, C. PARAPSILOSIS, RPMI media” value against C. parapsilosis was 2 (2: 5-20 mg/L). Besides, in the assay on C. tropicalis, the “MIC grade, C. TROPICALIS, RPMI media” value is 2 (2: 5-20 mg/L). Besides, the “MIC grade, A. FUMIGATUS 210, RPMI media” value with A. fumigatus 210 [4] is 1 (1: ≥20 mg/L). Moreover, the “MIC grade, A. FUMIGATUS, RPMI media” value with A. fumigatus is on record as 2 (2: 5-20 mg/L).
